Measured values taken from patent US6914045B2, “Glycopeptide antibiotics” (Wyeth Holdings Corporation, priority 2001, dated 2005).
Values after ≈ are worked out from the molar mass of the structure shown.

Experiments:
[1] = anatomic pathology (histopathology of heart and kidney) in mice; format: in vivo; details: CD-1 mice, 20 mg/kg intravenously daily for 9 days, necropsy day 10, microscopic histopathology
Protocol: Samples of tissues from necropsied mice were formalin-fixed, paraffin-embedded, sectioned, stained with hematoxylin and eosin, and examined microscopically. Histopathologic findings were recorded. These findings were subjectively graded on a scale corresponding to slight, mild, moderate, marked and severe as compared to untreated controls.

[2] = test system: Escherichia coli; experiment: in vitro antibacterial evaluation, MIC by broth dilution; format: cell-based; details: 18 hours at 35° C.
[3] = test system: Staphylococcus aureus-SMITH (GC 4543); experiment: acute lethal infection in mice; format: in vivo; details: acute lethal infection, female CD-1 mice, intraperitoneal challenge, intravenous 30 min. after infection, 7 day survival
Method in brief: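 Female CD-1 mice (20+/−2 gm) were infected intraperitoneally with enough bacteria, suspended in trypticase soy broth or hog gastric mucin, to kill untreated controls within 24-48 hr. Compound in saline or 5% dextrose was given intravenously 30 min post-infection, five mice per dose. ED50 came from pooled 7 day survival of 3 tests.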

[4] = test system: Enterococcus sp.; experiment: in vitro antibacterial evaluation, MIC by broth dilution; format: cell-based; details: broth dilution, 18 hours at 35° C.
Method in brief: (§1)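 Following National Committee for Clinical Laboratory Standards recommendations (M7-A2), susceptibility was measured by dilution in Muller-Hinton II […]. Bacteria were seeded at 5×10^5 CFU/mL against compound concentrations from 64 down to 0.06 μg/mL.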

[5] = test system: Staphylococcus sp.; experiment: as above; format: cell-based; details: broth dilution, 18 hours at 35° C.
Method in brief: as §1

[6] = test system: Streptococcus sp.; experiment: as above; format: cell-based; details: broth dilution, 18 hours at 35° C.
Method in brief: as §1

[7] = clinical pathology (serum clinical chemistry) in mice; format: in vivo; details: CD-1 mice, 20 mg/kg intravenously daily for 9 days, sera day 10
Protocol: 20-day-old CD-1 mice were divided into a vehicle control group (5 mice) and a treatment group (5 mice). Samples of glycopeptide antibiotics were administered at 20 mg/kg intravenously daily for 9 days.

## COc1ccc2cc(COC3C(CO)OC(OC4C(CO)OC(Oc5ccc(CC6NC(=O)C(C(C)c7ccccc7)NC(=O)CNC(=O)C(CO)NC(=O)C(CC7CNC(=N)N7C7OC(CO)C(O)C(O)C7O)NC(=O)C(CC7CNC(=N)N7)NC6=O)cc5)C(O)C4O)C(O)C3O)ccc2c1 (stereo not drawn) [Example 245a, Cyclo[3-(2-iminoimidazolidin-4-yl)alanyl-3-(3-hexopyranosyl-2-iminoimidazolidin-4-yl)-alanylserylglycyl-β-methylphenylalanyl-O-[4-O-[4-O-[(6-methoxy-2-naphthyl)methyl]-hexopyranosyl]hexopyranosyl]tyrosyl]]
[1]
  Anatomical Pathology (Day 10), Heart: +
  Anatomical Pathology (Day 10), Kidney: +++
[2]
  MIC Escherichia coli (ATCC 25922): 32 µg/mL (≈ 22.3 µM)
  MIC Escherichia coli (GC 4559): 32 µg/mL (≈ 22.3 µM)
  MIC Escherichia coli (GC 4560): 2 µg/mL (≈ 1.4 µM)
[3]
  median effective dose (ED50), Staphylococcus aureus-SMITH (GC 4543): 1 mg/kg
[4]
  MIC Enterococcus avium (GC 4558): 4 µg/mL (≈ 2.79 µM)
  MIC Enterococcus faecalis (ATCC 29212): 8 µg/mL (≈ 5.58 µM)
  MIC Enterococcus faecalis (GC 2242): 4 µg/mL (≈ 2.79 µM)
  MIC Enterococcus faecalis (GC 2691): 8 µg/mL (≈ 5.58 µM)
  MIC Enterococcus faecalis (GC 3059): 4 µg/mL (≈ 2.79 µM)
  MIC Enterococcus faecalis (GC 4552): 8 µg/mL (≈ 5.58 µM)
  MIC Enterococcus faecalis (GC 4553): 4 µg/mL (≈ 2.79 µM)
  MIC Enterococcus faecalis (GC 4554): 8 µg/mL (≈ 5.58 µM)
  MIC Enterococcus faecalis (GC 6189): 8 µg/mL (≈ 5.58 µM)
  MIC Enterococcus faecium (GC 2243): 4 µg/mL (≈ 2.79 µM)
  MIC Enterococcus faecium (GC 4556): 4 µg/mL (≈ 2.79 µM)
  MIC Enterococcus faecium (GC 4557): 2 µg/mL (≈ 1.4 µM)
[4]; strain ATCC 29212
  MIC Enterococcus faecalis (ATCC 29212): 8 µg/mL (≈ 5.58 µM)
[4]; strain GC 2243
  MIC Enterococcus faecium (GC 2243): 4 µg/mL (≈ 2.79 µM)
[4]; strain GC 4552
  MIC Enterococcus faecalis (GC 4552): 8 µg/mL (≈ 5.58 µM)
[4]; strain GC 4553
  MIC Enterococcus faecalis (GC 4553): 4 µg/mL (≈ 2.79 µM)
[4]; strain GC 4554
  MIC Enterococcus faecalis (GC 4554): 8 µg/mL (≈ 5.58 µM)
[4]; strain GC 4556
  MIC Enterococcus faecium (GC 4556): 4 µg/mL (≈ 2.79 µM)
[4]; strain GC 4557
  MIC Enterococcus faecium (GC 4557): 2 µg/mL (≈ 1.4 µM)
[4]; strain GC 4558
  MIC Enterococcus avium (GC 4558): 4 µg/mL (≈ 2.79 µM)
[4]; strain GC 6189
  MIC Enterococcus faecalis (GC 6189): 8 µg/mL (≈ 5.58 µM)
[4]; inoculum 5×10^5 CFU/mL, strain GC 2242
  MIC Enterococcus faecalis (GC 2242): 4 µg/mL (≈ 2.79 µM)
[4]; inoculum 5×10^5 CFU/mL, strain GC 2691
  MIC Enterococcus faecalis (GC 2691): 8 µg/mL (≈ 5.58 µM)
[4]; inoculum 5×10^5 CFU/mL, strain GC 3059
  MIC Enterococcus faecalis (GC 3059): 4 µg/mL (≈ 2.79 µM)
[5]
  MIC Coagulase Negative Staphylococcus (GC 4547): 2 µg/mL (≈ 1.4 µM)
  MIC Coagulase Negative Staphylococcus (GC 4548): 1 µg/mL (≈ 0.698 µM)
  MIC Coagulase Negative Staphylococcus (GC 4549): 0.5 µg/mL (≈ 0.349 µM)
  MIC Coagulase Negative Staphylococcus (GC 4551): 2 µg/mL (≈ 1.4 µM)
  MIC Coagulase Negative Staphylococcus (GC 6257): 1 µg/mL (≈ 0.698 µM)
  MIC Staphylococcus aureus (ATCC 29213): 2 µg/mL (≈ 1.4 µM)
  MIC Staphylococcus aureus (GC 1131): 4 µg/mL (≈ 2.79 µM)
  MIC Staphylococcus aureus (GC 3051): 2 µg/mL (≈ 1.4 µM)
  MIC Staphylococcus aureus (GC 3053): 2 µg/mL (≈ 1.4 µM)
  MIC Staphylococcus aureus (GC 4541): 2 µg/mL (≈ 1.4 µM)
  MIC Staphylococcus aureus (GC 4542): 2 µg/mL (≈ 1.4 µM)
  MIC Staphylococcus aureus (GC 4544): 2 µg/mL (≈ 1.4 µM)
  MIC Staphylococcus aureus (GC 4545): 2 µg/mL (≈ 1.4 µM)
  MIC Staphylococcus aureus-SMITH (GC 4543): 2 µg/mL (≈ 1.4 µM)
  MIC Staphylococcus haemolyticus (GC 4546): 1 µg/mL (≈ 0.698 µM)
[5]; strain ATCC 29213
  MIC Staphylococcus aureus (ATCC 29213): 2 µg/mL (≈ 1.4 µM)
[5]; strain GC 1131
  MIC Staphylococcus aureus (GC 1131): 4 µg/mL (≈ 2.79 µM)
[5]; strain GC 3051
  MIC Staphylococcus aureus (GC 3051): 2 µg/mL (≈ 1.4 µM)
[5]; strain GC 3053
  MIC Staphylococcus aureus (GC 3053): 2 µg/mL (≈ 1.4 µM)
[5]; strain GC 4541
  MIC Staphylococcus aureus (GC 4541): 2 µg/mL (≈ 1.4 µM)
[5]; strain GC 4542
  MIC Staphylococcus aureus (GC 4542): 2 µg/mL (≈ 1.4 µM)
[5]; strain GC 4543
  MIC Staphylococcus aureus-SMITH (GC 4543): 2 µg/mL (≈ 1.4 µM)
[5]; strain GC 4544
  MIC Staphylococcus aureus (GC 4544): 2 µg/mL (≈ 1.4 µM)
[5]; strain GC 4545
  MIC Staphylococcus aureus (GC 4545): 2 µg/mL (≈ 1.4 µM)
[5]; strain GC 4546
  MIC Staphylococcus haemolyticus (GC 4546): 1 µg/mL (≈ 0.698 µM)
[5]; strain GC 4547
  MIC Coagulase Negative Staphylococcus (GC 4547): 2 µg/mL (≈ 1.4 µM)
[5]; strain GC 4548
  MIC Coagulase Negative Staphylococcus (GC 4548): 1 µg/mL (≈ 0.698 µM)
[5]; strain GC 4549
  MIC Coagulase Negative Staphylococcus (GC 4549): 0.5 µg/mL (≈ 0.349 µM)
[5]; strain GC 4551
  MIC Coagulase Negative Staphylococcus (GC 4551): 2 µg/mL (≈ 1.4 µM)
[5]; strain GC 6257
  MIC Coagulase Negative Staphylococcus (GC 6257): 1 µg/mL (≈ 0.698 µM)
[6]
  MIC Streptococcus agalactiae (GC 4564): 1 µg/mL (≈ 0.698 µM)
  MIC Streptococcus pneumoniae (ATCC 6301): 0.5 µg/mL (≈ 0.349 µM)
  MIC Streptococcus pneumoniae (GC 1894): <0.12 µg/mL
  MIC Streptococcus pneumoniae (GC 4565): 1 µg/mL (≈ 0.698 µM)
  MIC Streptococcus pyogenes (GC 4563): 1 µg/mL (≈ 0.698 µM)
[6]; inoculum 5×10^5 CFU/mL, strain ATCC 6301
  MIC Streptococcus pneumoniae (ATCC 6301): 0.5 µg/mL (≈ 0.349 µM)
[6]; inoculum 5×10^5 CFU/mL, strain GC 1894
  MIC Streptococcus pneumoniae (GC 1894): <0.12 µg/mL
[6]; inoculum 5×10^5 CFU/mL, strain GC 4563
  MIC Streptococcus pyogenes (GC 4563): 1 µg/mL (≈ 0.698 µM)
[6]; inoculum 5×10^5 CFU/mL, strain GC 4564
  MIC Streptococcus agalactiae (GC 4564): 1 µg/mL (≈ 0.698 µM)
[6]; inoculum 5×10^5 CFU/mL, strain GC 4565
  MIC Streptococcus pneumoniae (GC 4565): 1 µg/mL (≈ 0.698 µM)
[7]
  Clinical Chemistry (Day 10) % of Control, BUN: +212%
  Clinical Chemistry (Day 10) % of Control, Creatinine: +133%
